Reference: PMC5532807 (Journal of the American Chemical Society, 2017)

Molecular target: T1, JuvD-RhFRED (Micromonospora chalcea, UniProt A0A1Z1MZ59)
T1 sequence (A0A1Z1MZ59 1-402): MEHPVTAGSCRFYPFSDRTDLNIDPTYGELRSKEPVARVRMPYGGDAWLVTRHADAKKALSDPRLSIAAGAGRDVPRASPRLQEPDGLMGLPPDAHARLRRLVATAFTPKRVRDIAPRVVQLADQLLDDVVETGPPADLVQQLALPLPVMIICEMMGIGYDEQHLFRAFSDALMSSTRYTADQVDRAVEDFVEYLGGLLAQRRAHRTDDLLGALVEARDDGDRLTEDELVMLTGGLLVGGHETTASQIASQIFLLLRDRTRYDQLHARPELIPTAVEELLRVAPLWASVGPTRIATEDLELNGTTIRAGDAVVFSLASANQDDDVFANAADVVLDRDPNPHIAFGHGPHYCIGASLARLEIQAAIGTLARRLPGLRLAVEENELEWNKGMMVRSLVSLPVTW
Test: in vitro P450 oxidation
Assay type: biochemical
Conditions: C12-C13 epoxidation; enzyme preparation not given

## CC[C@H]1OC(=O)C[C@@H](O)[C@H](C)[C@@H](O[C@@H]2O[C@H](C)C[C@H](N(C)C)[C@H]2O)[C@@H](CC=O)C[C@@H](C)C(=O)/C=C/C(C)=C/[C@@H]1C [compound 5, M-4365 G2]
  in vitro P450 oxidation: this enzyme effectively converted each substrate to a single product
